Laboratory results reported in ChEMBL document CHEMBL5230088 (Eur J Med Chem, 2020).

Tests used:
[1] = Cytotoxicity against African green monkey Vero E6 cells; format: toxicity, cell-based, Vero C1008; details: chlorocebus sabaeus
[2] = Antiviral activity against Porcine delta coronavirus assessed as reduction in viral replication; format: functional, Porcine deltacoronavirus
[3] = test system: Nipah virus; test: Antiviral activity against NiV by reporter assay; format: functional, organism-based; details: Henipavirus nipahense
[4] = test system: Respiratory syncytial virus; test: Antiviral activity against RSV; format: functional, organism-based; details: human respiratory syncytial virus
[5] = test system: Ebolavirus; test: Antiviral activity against EBOV infected in human Huh-7 cells assessed as reduction in viral replication; format: functional, organism-based; details: Orthoebolavirus
[6] = test system: Ebolavirus; test: Antiviral activity against EBOV infected in human HeLa cells assessed as reduction in viral replication; format: functional, organism-based; details: Orthoebolavirus
[7] = test system: Lassa virus; test: Antiviral activity against Lassa virus assessed as inhibition of viral replication; format: functional, organism-based; details: Mammarenavirus lassaense
[8] = test system: Ebolavirus; test: Antiviral activity against EBOV infected in human endothelial cells assessed as reduction in viral replication; format: functional, organism-based; details: Orthoebolavirus
[9] = test system: Ebolavirus; test: Antiviral activity against EBOV infected in HFF assessed as reduction in viral replication; format: functional, organism-based; details: Orthoebolavirus
[10] = test system: Middle East respiratory syndrome-related coronavirus; test: Antiviral activity against MERS-CoV infected in HAE cells; format: functional, organism-based
[11] = test system: SARS-CoV-2; test: Antiviral activity against SARS-CoV-2 infected in HAE cells assessed as reduction in viral infection; format: functional, organism-based; details: Severe acute respiratory syndrome coronavirus 2, HAE
[12] = Prodrug conversion in rhesus monkey plasma assessed as NTP formation at 10 mg/kg; format: ADME, organism-based, Macaca mulatta; details: in vivo
[13] = test system: Nipah virus; test: Antiviral activity against NiV by cytopathic effect assay; format: functional, organism-based; details: Henipavirus nipahense
[14] = test system: Junin virus; test: Antiviral activity against Argentinian mammarenavirus assessed as inhibition of viral replication; format: functional, organism-based; details: Mammarenavirus juninense
[15] = test system: Nipah virus; test: Antiviral activity against NiV by antigen reduction assay; format: functional, organism-based; details: Henipavirus nipahense
[16] = Cytotoxicity against human Huh-7 cells by celltiter-glo Assay; format: toxicity, cell-based
[17] = test system: Middle East respiratory syndrome-related coronavirus; test: Antiviral activity against MERS-CoV infected in HLE cells assessed as inhibition of viral replication; format: functional, organism-based
[18] = test system: Nipah virus; test: Antiviral activity against NiV by virus titre reduction assay; format: functional, organism-based; details: Henipavirus nipahense
[19] = test system: Human coronavirus OC43; test: Antiviral activity against HCoV-OC43; format: functional, organism-based; details: Betacoronavirus 1
[20] = test system: Ebolavirus; test: Antiviral activity against EBOV infected in human primary macrophage cells assessed as reduction in viral replication; format: functional, organism-based; details: Orthoebolavirus
[21] = Cytotoxicity against mouse Astrocytoma delayed brain tumor (DBT) cells; format: toxicity, cell-based, Astrocytoma delayed brain tumor (DBT) cell
[22] = test system: Ebolavirus; test: Antiviral activity against EBOV infected in rhesus monkey model assessed as protection against viral infection at 10 mg/kg, iv administered once daily fir 12 days relative to control; format: functional; details: time 12 day
[23] = test system: Murine hepatitis virus; test: Antiviral activity against MHV infected in mouse Astrocytoma delayed brain tumor (DBT) cells; format: functional, organism-based; details: Murine coronavirus, Astrocytoma delayed brain tumor (DBT) cell
[24] = Prodrug conversion in mouse lungs assessed as NTP formation at 10 mg/kg; format: ADME, organism-based, Lung; details: in vivo

## CCC(CC)COC(=O)[C@H](C)N[P@](=O)(OC[C@H]1O[C@@](C#N)(c2ccc3c(N)ncnn23)[C@H](O)[C@@H]1O)Oc1ccccc1
[1]
  CC50: > 100000 nM
[2]
  EC50: 20 nM
[3]
  EC50: 29 nM
[4]
  EC50: 19 nM
  EC90: 51 nM
[5]
  EC50: 60 nM
[6]
  EC50: 60 nM
[7]
  EC50: 1480 nM
  EC90: 2800 nM
[8]
  EC50: 60 nM
[9]
  EC50: 60 nM
[10]
  EC50: 74 nM
[11]
  EC50: 69 nM
[12]
  Drug metabolism: 30 µmol/L
[13]
  EC50: 29 nM
[14]
  EC50: 470 nM
  EC90: 1330 nM
[15]
  EC50: 29 nM
[16]
  CC50: > 10000 nM
[17]
  IC50: 25 nM
[18]
  EC50: 29 nM
[19]
  EC50: 150 nM
[20]
  EC50: 60 nM
[21]
  CC50: 39000 nM
[22]
  Activity: 100%
[23]
  EC50: 30 nM
[24]
  Drug metabolism: 2 µmol/L
